# Laboratory results published in US9175030B2, “Derivatives of avicin D and methods of making and using thereof” (priority 2012, dated 2015).
# Experiments:
# 769P = assay: MTT growth inhibition, 769P; assay type: cell-based, human; conditions: 769P cells, 72 hrs
# Procedure: (§1) The growth inhibitory effects of avicin D and oxetane derivative were measured using the MTT [3-(4,5-dimethylthiazol-2-yl)-2,5-diphenyl tetrazolium bromide] reduction assay as described in Haridas et al. (2001). Cells were cultured with varying concentrations of avicin D or oxetane in 96-well plates for 72 hrs at 37° C. At the end of 72 hrs, cells were stained with MTT for 2 hrs and then incubated with lysis buffer (20% SDS in 50% N,N-dimethylformamide) for another 6 hrs. Optical density at 570 nm was used as a measure of cell viability.
# (§2) The cell lines 769P, A498, CAKI-1, and CAKI-2 are derived from primary human renal-cell cancers (RCC). A549 is a human lung adenocarcinoma epithelial cell line. B16F10 is a mouse melanoma cell line. BT474, BT 474 M1, BT549, MCF7, […], and ZR751 are breast cancer cell lines. CCRF-CEM, Jurkat, and MOLT4 are leukemia cell lines. HELA is cell line derived from cervical caner. HepG2 is a human hepatocellular liver carcinoma cell line. JeKo-1 is a mantle cell lymphoma (MCL) cell line. LnCAP is a cell line was established from a metastatic lesion of human prostatic adenocarcinoma. MM.1 and RPMI-8226 are human multiple myeloma cell lines. OVCAR3 and SKOV3 are ovarian cancer cell lines. Panc-1 is a pancreatic cancer cell line. PC3 is a prostate cancer cell line. Raji is a Burkitt's lymphoma cell line. RL is a non-Hodgkin's lymphoma cell line. […]
# A498 = assay: MTT growth inhibition, A498; assay type: cell-based, human; conditions: A498 cells, 72 hrs
# Procedure: as §1, §2
# A549 = assay: MTT growth inhibition, A549; assay type: cell-based, human; conditions: A549 cells, 72 hrs
# Procedure: as §1, §2
# B16F10 = assay: MTT growth inhibition, B16F10; assay type: cell-based, mouse; conditions: B16F10 cells, 72 hrs
# Procedure: as §1, §2
# BT474 M1 = assay: MTT growth inhibition, BT474 M1; assay type: cell-based; conditions: BT474 M1 cells, 72 hrs
# Procedure: as §1, §2
# BT549 = assay: MTT growth inhibition, BT549; assay type: cell-based; conditions: BT549 cells, 72 hrs
# Procedure: as §1, §2
# CCRF-CEM = assay: MTT growth inhibition, CCRF-CEM; assay type: cell-based; conditions: CCRF-CEM cells, 72 hrs
# Procedure: as §1, §2
# Hela = assay: MTT growth inhibition, Hela; assay type: cell-based; conditions: Hela cells, 72 hrs
# Procedure: as §1, §2
# Jurkat = assay: MTT growth inhibition, Jurkat; assay type: cell-based, human; conditions: Jurkat cells, 72 hrs (Table 5)
# Procedure: as §1, §2
# MM1 = assay: MTT growth inhibition, MM1; assay type: cell-based, human; conditions: MM1 cells, 72 hrs
# Procedure: as §1, §2
# MOLT4 = assay: MTT growth inhibition, MOLT4; assay type: cell-based; conditions: MOLT4 cells, 72 hrs
# Procedure: as §1, §2
# OVCAR3 = assay: MTT growth inhibition, OVCAR3; assay type: cell-based; conditions: OVCAR3 cells, 72 hrs
# Procedure: as §1, §2
# PC3 = assay: MTT growth inhibition, PC3; assay type: cell-based; conditions: PC3 cells, 72 hrs
# Procedure: as §1, §2
# RL = assay: MTT growth inhibition, RL; assay type: cell-based; conditions: RL cells, 72 hrs
# Procedure: as §1, §2
# RPMI 8226 = assay: MTT growth inhibition, RPMI 8226; assay type: cell-based, human; conditions: RPMI 8226 cells, 72 hrs
# Procedure: as §1, §2
# SKOV3 = assay: MTT growth inhibition, SKOV3; assay type: cell-based; conditions: SKOV3 cells, 72 hrs
# Procedure: as §1, §2
# U2OS = assay: MTT growth inhibition, U2OS; assay type: cell-based, human; conditions: U2OS cells, 72 hrs
# Procedure: as §1, §2
# U266 = assay: MTT growth inhibition, U266; assay type: cell-based; conditions: U266 cells, 72 hrs
# Procedure: as §1, §2
# ZR751 = assay: MTT growth inhibition, ZR751; assay type: cell-based; conditions: ZR751 cells, 72 hrs
# Procedure: as §1, §2
# GM0131 = assay: MTT growth inhibition, GM0131; assay type: cell-based; conditions: GM0131 wild type human fibroblast cells, 72 hrs
# Procedure: as §1, §2
# HEK293 = assay: MTT growth inhibition, HEK293; assay type: cell-based, human; conditions: HEK293 cells, 72 hrs
# Procedure: as §1, §2
# Nrf2 = Nrf2 activation, ARE-driven luciferase in Hep G2 cells; assay type: cell-based, human; conditions: Hep G2 cells transfected with hARE-luc, luciferase activity
# Procedure: Activation of Nrf2 was assessed by measuring the antioxidant response element (ARE)-mediated gene expression as described previously by Haridas et al., 2004, which is incorporated herein by reference. Briefly, ARE is a cis-acting regulatory sequence identified in the promoter region of several genes encoding phase 2 detoxification enzymes, that binds to Nrf2. Hep G2 (human hepatocarcinoma) cells were transfected with a human ARE-driven luciferase (luc) containing plasmid, hARE-luc. Following exposure to avicin D/compound 8, the luciferase activity induced in these cells was measured using a dual-luciferase assay kit (Promega) according to the manufacturer's protocol.
# NF-κB = assay: Inhibition of NF-κB activation (FIG. 2A); assay type: cell-based; conditions: compared with dexamethasone
# [1] = tested on: p(IL6-κB)350hu.IL6P-Luc in HEK 293T cells; assay: TNF-induced NF-κB luciferase reporter in HEK 293T cells with and without GR (FIG. 3); assay type: cell-based
# Text: However, TNF-induced activation of p(IL6-κB)350hu.IL6P-Luc was inhibited by both avicin D and Dex in HEK 293T cells transfected with GR (FIG. 3). […] This observation supports the notion that avicins are not able to induce GR transactivation.
# [2] = molecular target: glucocorticoid receptor (GR) (Homo sapiens, UniProt P04150); assay: GR Ser-211 phosphorylation (FIG. 4); assay type: cell-based; conditions: up to 16 hours
# Sequence of glucocorticoid receptor (GR) (P04150 whole entry): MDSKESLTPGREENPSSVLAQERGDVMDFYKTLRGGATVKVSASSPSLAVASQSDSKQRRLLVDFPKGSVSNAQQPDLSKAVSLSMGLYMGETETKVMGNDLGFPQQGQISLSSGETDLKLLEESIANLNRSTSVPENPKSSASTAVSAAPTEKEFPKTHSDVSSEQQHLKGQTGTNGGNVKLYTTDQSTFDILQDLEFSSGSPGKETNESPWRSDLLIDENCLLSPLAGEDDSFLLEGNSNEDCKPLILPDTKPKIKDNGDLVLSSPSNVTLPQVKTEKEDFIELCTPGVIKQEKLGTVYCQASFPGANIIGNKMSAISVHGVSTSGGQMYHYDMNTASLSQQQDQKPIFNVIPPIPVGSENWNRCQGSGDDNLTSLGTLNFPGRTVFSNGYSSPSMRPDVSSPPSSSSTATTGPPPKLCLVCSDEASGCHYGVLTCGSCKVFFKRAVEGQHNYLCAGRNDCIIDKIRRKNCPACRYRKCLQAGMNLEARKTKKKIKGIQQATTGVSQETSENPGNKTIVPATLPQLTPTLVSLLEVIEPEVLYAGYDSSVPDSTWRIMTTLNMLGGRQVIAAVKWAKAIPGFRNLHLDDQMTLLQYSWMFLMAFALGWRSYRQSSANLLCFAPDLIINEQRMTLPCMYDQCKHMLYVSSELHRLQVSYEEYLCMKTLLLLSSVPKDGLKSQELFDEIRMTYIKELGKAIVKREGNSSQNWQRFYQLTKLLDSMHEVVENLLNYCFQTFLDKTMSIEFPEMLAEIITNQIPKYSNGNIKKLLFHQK
# 3T3-L1 cells = conditions: cited from earlier work
# [3] = tested on: PKA-mediated CREB activity; conditions: cited from earlier work
# adiponectin = conditions: adipocytes; cited from earlier work
# human preadipocytes = conditions: cited from earlier work
structure (smiles),measurement,setting,value
C=C[C@](C)(O)CC/C=C(\CO)C(=O)O[C@H]1[C@H](O)[C@@H](O)[C@H](O[C@@](C)(C=C)CC/C=C(\CO)C(=O)O[C@H]2C[C@]3(C(=O)O[C@@H]4O[C@H](CO)[C@@H](O)[C@H](O)[C@H]4O[C@@H]4O[C@@H](C)[C@H](O[C@@H]5O[C@@H](CO)[C@H](O)[C@H]5O)[C@@H](O[C@@H]5O[C@H](CO)[C@@H](O)[C@H](O)[C@H]5O)[C@H]4O)[C@H](O)C[C@]4(C)C(=CC[C@@H]5[C@@]6(C)CC[C@H](O[C@@H]7O[C@H](CO[C@@H]8O[C@H](C)[C@H](O)[C@H](O)[C@H]8O[C@@H]8OC[C@@H](O)[C@H](O)[C@H]8O)[C@@H](O)[C@H](O)[C@H]7NC(C)=O)C(C)(C)[C@@H]6CC[C@]54C)[C@@H]3CC2(C)C)O[C@@H]1C [Avicin D],IC50,769P,360 nM
same,IC50,A498,440 nM
same,IC50,A549,6900 nM
same,IC50,B16F10,660 nM
same,IC50,BT474 M1,1100 nM
same,IC50,BT549,4800 nM
same,IC50,CCRF-CEM,5500 nM
same,IC50,Hela,13200 nM
same,IC50,Jurkat,170 nM
same,IC50,MM1,100 nM
same,IC50,MOLT4,320 nM
same,IC50,OVCAR3,1300 nM
same,IC50,PC3,440 nM
same,IC50,RL,310 nM
same,IC50,RPMI 8226,300 nM
same,IC50,SKOV3,1000 nM
same,IC50,U2OS,4400 nM
same,IC50,U266,300 nM
same,IC50,ZR751,670 nM
same,IC50,GM0131,30100 nM
same,IC50,HEK293,6500 nM
same,Fold Nrf2 activation,Nrf2,2.10
same,activation of NF-κB,NF-κB,inhibits activation of NF-κB
same,TNF-induced activation of p(IL6-κB)350hu.IL6P-Luc,[1]; HEK 293T cells transfected with GR,inhibited
same,luciferase activity,[1]; wild type HEK 293T cells (no GR),neither avicin D nor dexamethasone had an effect
same,phosphorylation of Ser-211,[2],does not enhance phosphorylation of Ser-211 even after 16 hours
same,adipogenesis,3T3-L1 cells,inhibit adipogenesis
same,intracellular triglyceride level,3T3-L1 cells,reduce intracellular triglyceride level in a dose-dependent manner
same,PKA-mediated CREB activity,[3],inhibited PKA-mediated CREB activity
same,expression and secretion of adiponectin,adiponectin,increased the expression and secretion of adiponectin
same,differentiation of preadipocytes to mature adipocytes,human preadipocytes,inhibited the differentiation of human preadipocytes to mature adipocytes
same,intracellular triglyceride levels,human preadipocytes,reduced intracellular triglyceride levels
